Assay results from a melting point compilation (Tetko et al.; mined from patent text by program, amines drawn as free bases though some values may be those of a salt).

Row | Structure (SMILES) | melting point
1 | CS(=O)(=O)c1ccc(-c2c(-c3ccc(F)cc3)c(OCc3ccccc3)nn2Cc2ccccc2)cc1 | 174 to 175 °C
2 | CCC(C(=O)c1ccc(N(CCN(CC)CC)S(C)(=O)=O)cc1)c1ccccc1 (configuration not stated) | 76 to 77 °C
3 | C[C@]1(CN2CCN(S(=O)(=O)CCCc3ccc(Cl)cc3)CC2)Cn2cc([N+](=O)[O-])nc2O1 | 150 to 151 °C
4 | CCOc1ccc(NC(=O)NCCCOc2cccc(CN3CCCCC3)c2)cc1 | 109 to 111 °C
5 | CC(=O)Nc1coc2ccc(C(C)(C)C)cc2c1=S | 215 °C
6 | CC(C)Oc1ccc(-c2nc3c4ccccc4ccc3n2C)cc1 | 144 to 145 °C
7 | CC(=O)OC[C@H]1O[C@@H]2[C@@H](Sc3ccc(Cl)cc3N2C)[C@@H](OC(C)=O)[C@@H]1OC(C)=O | 217 to 218 °C
8 | O=C1CCC(c2ccc(-n3ccc(=O)cc3)cc2)=NN1 | 270 to 272 °C
9 | Cc1nc2sc3ccccc3n2c1C(C)O (configuration not stated) | 173 to 174 °C
10 | O=c1c2ccc(OCc3ccccc3)cc2[nH]c2c([N+](=O)[O-])ccc(Cl)c12 | 198 to 202 °C
11 | [N-]=[N+]=NCC(COC(C(F)(F)F)(C(F)(F)F)C(F)(F)F)(COC(C(F)(F)F)(C(F)(F)F)C(F)(F)F)C(=O)O | 97 to 98 °C
12 | Nc1ccc(-c2noc(-c3cnn4c(C(F)(F)F)cc(-c5ccc(C(F)(F)F)cc5)nc34)n2)cn1 | 257 °C
13 | CN1CCN(c2cc3nc(C(C)(C)C)sc3cc2N=C=O)CC1 | 124 to 126 °C
14 | O=C(O)c1ccc(OCCOc2ccccc2)cc1 | 198 to 199 °C
15 | Cc1nc(N2C[C@@H](Cc3ccccc3)NC2=O)sc1C(=O)NCc1ccccc1 | 212 to 214 °C
16 | O=C(NO)C1(S(=O)(=O)c2ccc(OCC#CCN3CCOCC3)cc2)CCN(Cc2ccc(Br)cc2)CC1 | 94 °C
17 | COc1nsc(OCCC#CI)c1C#N | 71 to 73 °C
18 | CC(=O)OCC1OC(n2cnc3c(NCC(c4ccccc4)c4ccccc4)nc(Cl)nc32)C(OC(C)=O)C1OC(C)=O (configuration not stated) | 68 to 71 °C
19 | CC(C)CC(=O)Nc1cccc(-c2ccnc3c(-c4cccc(N(C)C)c4)cnn23)c1 | 182 to 184 °C
20 | CC(=O)Oc1ccccc1C(=O)CNc1c(C(=O)O)[nH]c2cc(Cl)ccc12 | 184 to 186 °C
21 | CCn1c2ccccc2c2cc(N(c3ccccc3)c3ccccc3)ccc21 | 152 to 154 °C
22 | CCOC(=O)Cn1[nH]c(C)c(Cc2cc(Cl)cc(Cl)c2)c1=O | 183 to 184 °C
23 | COc1cc2c(cc1OC)C(C(CO)CO)N(C(=O)Nc1ccccc1)CC2 (configuration not stated) | 191 to 192 °C

Row | Structure (SMILES) | melting point
24 | COC(=O)c1ccc2c(c1)C(=O)C(C=C1C=CC=C(C(=O)O)C1)O2 (configuration not stated) | 280 °C
25 | CCCCCc1c(C(C)C)nc(C(C)C)c(CO)c1-c1cccc(F)c1 | 117 to 118 °C
26 | OC(c1cccc(C(F)(F)F)c1)C1CCN(CCc2ccccc2)CC1 (configuration not stated) | 143 to 147 °C
27 | CN(C(=O)c1coc(C=Cc2ccc(C(F)(F)F)cc2)n1)c1ccc(CCCCn2ccnn2)cc1 | 127 to 129 °C
28 | NCCCCCCCNC(=O)COCC(=O)NC1CCC2C3Cc4ccccc4C2(CCN3)C1 (configuration not stated) | 83 to 85 °C
29 | CCCCCC(C)C(C)c1cc(O)c2c(c1)OC(C)(C)C1=C2CN(CC(=O)Nc2ccc(Cl)cc2)CC1 (configuration not stated) | 159 to 160 °C
30 | O=C(Nc1cc([N+](=O)[O-])cc([N+](=O)[O-])c1)c1cc(Br)ccc1O | 258 to 260 °C
31 | CC(C)c1csc(COC(=O)NC(C(=O)NC(Cc2ccccc2)CC(O)C(Cc2ccccc2)NC(=O)OCc2cncs2)C(C)C)n1 (configuration not stated) | 62 to 64 °C
32 | NC1=NS(=O)N=C1NCCCN(Cc1ccccc1F)c1ccccn1 (configuration not stated) | 180 to 182 °C
33 | O=C1c2ccccc2C(=O)N1n1cccc1-c1ccccc1 | 168 to 170 °C
34 | CC(C)(C)c1cc(CCC2NC(=O)NC2=O)cc(C(C)(C)C)c1O (configuration not stated) | 207 to 208 °C
35 | CCc1cc(C(=O)c2ccccc2Cl)c(-n2c(CC)nnc2CNC(=O)c2ccc(Cl)c(Cl)c2)s1 | 136 to 138 °C
36 | CC1Cc2cc3c(cc2C(c2ccc([N+](=O)[O-])cc2)=NN1c1nc(C(=O)O)cs1)OCO3 (configuration not stated) | > 260 °C
37 | Cc1nnc2n1-c1sc(C(=O)O)cc1C(c1ccccc1Cl)=NC2 | 302 °C
38 | Nc1nc(N)c(CCCNc2ccc(C(=O)N[C@@H](CCC(=O)O)C(=O)O)cc2F)c(=O)[nH]1 | > 175 °C
39 | O=C(O)Cc1cc(Cl)c2c(c1)CCC(c1ccccc1F)N2 (configuration not stated) | 127 to 129 °C
40 | COCC1CN(c2ccc(OCC3CCCC3=O)cc2)C(=O)O1 (configuration not stated) | 70 °C
41 | CC(C)(C)NC(=O)[C@@H]1CCCN1C(=O)[C@@H](O)[C@H](Cc1ccccc1)N(Cc1ccccc1)Cc1ccccc1 | 122 to 123 °C
42 | CN1CCNC(c2ccccc2)c2cc([N+](=O)[O-])ccc21 (configuration not stated) | 96 to 99 °C
43 | CCn1cc(C(=O)O)c(=O)c2cc(F)c(N3CCN(C)C(COc4ccccc4)C3)cc21 (configuration not stated) | 202 to 204 °C
44 | Cc1ccc2nc(NC3=NCCN3)[nH]c2c1C | 199 to 204 °C
45 | Fc1cc(F)c2[nH]c(-c3ccccc3)c(CCN3CCCCC3)c2c1 | 185 to 187 °C
46 | Cc1nc(N2CCN(Cc3ccc(OC(F)(F)F)cc3)C2=O)sc1C(N)=O | 185 to 187 °C

Further lines, results first:

Row | melting point | Structure (SMILES)
47 | 190 to 194 °C | O=C(Nc1ccc(Cl)cc1)C1=C(N2CCCC2)CS(=O)(=O)N(Cc2ccc(Cl)cc2)c2ccccc21
48 | 245 to 246 °C | O=C(CCl)Nc1ccc2c(c1NC(=O)c1ccccc1F)C(=O)c1ccccc1C2=O
49 | 219 to 223 °C | CC(C)(Cn1cnc2c(N)nc3c(c21)CCCC3)OCCS(C)(=O)=O
50 | 184 to 185 °C | COC(=O)c1cc(-c2nc3ccccc3s2)cc2c1OC(c1ccccc1)(c1ccccc1)O2
51 | 277 to 281 °C | CCn1ccc(C(=O)c2sc(NC(=O)c3ccncc3)nc2-c2ccco2)cc1=O
52 | 96 to 97 °C | CC(=O)c1cc2c(c(C)c1O)OC(C)(C)CC2C (configuration not stated)
53 | 191 to 201 °C | CC1N(C(=O)c2ccc(C(F)(F)F)cc2)CC(n2cncn2)OC1(Cn1cncn1)c1ccc(Cl)cc1Cl (configuration not stated)
54 | 261 to 262 °C | CCCOc1ccccc1-c1nc2ncncc2c(=O)n1N
55 | 142 °C | Cc1cn(C(C)(C)C(=O)N(C)C)nc1-c1ccc(Cl)c(Cl)c1
56 | 297 to 300 °C | O=c1[nH]c2ccc(-c3cccnc3)cc2cc1Br
57 | 214 to 216 °C | CN1c2ccccc2C(C)(C)C12CNc1c(cc(N3CCCCC3)c3oc4ccccc4c13)O2 (configuration not stated)
58 | 245 to 247 °C | FC(F)(F)Oc1ccc(Nc2cc(-c3ccccc3)ncn2)cc1
59 | 178 to 180 °C | O=C(Nc1ccc(-n2nc(C(F)(F)F)cc2C(F)(F)F)cc1)C1CCCCC1
60 | 157 to 158 °C | CN1C(=O)CCC2(C)c3ccc(Sc4ccncc4)cc3CCC12 (single isomer, unassigned; (+))
61 | 111 to 113 °C | COc1cccc(OS(=O)(=O)c2ccc(N3CCN(C)C3=O)cc2)c1
62 | 154 °C | Clc1cnc2c(C(Cl)Cl)c(Cl)ccc2c1
63 | 183 to 184 °C | N#Cc1sc(N)c(C#N)c1N1CCCCC1
64 | 160 to 161 °C | CNC(=O)N1CC[C@H](OCc2cc(C(F)(F)F)cc(C(F)(F)F)c2)[C@H](Cc2ccccc2)C1 (relative stereo)
65 | 172 to 174 °C | O=C(O)CCC(=O)c1ccc(-c2ccc(C(F)(F)F)cc2)cc1
66 | 115 °C | CCc1c(C)c2c(OC)cc(-c3ccc(C(C)C)cc3)cc2oc1=O
67 | 273 to 275 °C | CNC(=O)c1ccc(C)c(-c2nc(SC)nc3c2CNC(=O)N3c2c(F)cccc2F)c1
68 | 89 to 91 °C | COC(=O)COc1nsc2nc(C)cc(C)c12
69 | 78 to 79 °C | CC(C)Oc1ccc(/C=C(\NC(=O)c2ccc(OCCc3ccc4ccccc4c3)cc2)C(=O)NCCO)cc1

Row | melting point | Structure (SMILES)
70 | 124 to 125 °C | COC(=O)C(=O)c1ccc(SCCOc2ccc3ccccc3c2)cc1
71 | 218 °C | CN(C)C1=C(C#N)C(c2ccc(Cl)c([N+](=O)[O-])c2)c2ccc3ccccc3c2O1 (configuration not stated)
72 | 240 to 242 °C | CC(C)c1c(C(=O)Nc2ccc(C(=O)O)cc2)c(-c2ccccc2)c(-c2ccc(F)cc2)n1CC[C@@H]1C[C@H](CC(=O)OC(C)(C)C)OC(C)(C)O1
73 | 108 to 110 °C | COc1cc(Nc2c(C#N)cnc3cc(-c4ccc(CN5CCOCC5)cc4)c(OC)cc23)c(Cl)cc1Cl
74 | 214 to 215 °C | COC(=O)c1ccc(N2C(=O)CCC2(CN=[N+]=[N-])COC(=O)c2ccccc2)c([N+](=O)[O-])c1 (configuration not stated)
75 | 106 to 107 °C | CCOC(=O)N1CCC(=C2c3ccccc3CCc3cccnc32)CC1
76 | 135 to 136 °C | O=C(O)C1=Cc2cc(C(F)F)ccc2OC1C(F)(F)F (configuration not stated)
77 | 193 to 194 °C | COC(=O)c1[nH]c2c(C)ccc(C)c2c1[N+](=O)[O-]
78 | 206 to 208 °C | N#Cc1c2c(c3c(c1N1CCCC1)Cc1ccccc1-3)-c1ccccc1C2
79 | 234 to 235 °C | O=C(Nc1n[nH]c(=S)s1)NC(Cc1ccccc1)C(=O)NCc1cccc2ccccc12 (configuration not stated)
80 | 282 to 284 °C | O=C1NC(c2ccccc2)C(=O)NC1c1ccccc1 (configuration not stated)
81 | 164 to 165 °C | CC1CN(Cc2n[nH]c3ccccc23)CCN1c1ccccc1 (single isomer, unassigned; (+))
82 | 117 to 141 °C | CCNC(=O)c1ccccc1Nc1nc(Nc2c(OC)ccc3c2CC(=O)N(CC)CC3)ncc1Cl
83 | 241 to 242 °C | CCn1c(=O)c2c(nc(/C=C/c3ccc(OC)c(OC(C)=O)c3)n2C)n(CC)c1=O
84 | 205 to 206 °C | O=C(C=Cc1ccccc1S(=O)(=O)Nc1ccccc1)NO
85 | 155 to 158 °C | CC1=C(C(=O)OC(C)C)C(c2ccc(F)cc2Cl)N=C(c2c(F)cccc2F)N1 (configuration not stated)
86 | > 350 °C | O=c1[nH]ncc2c1c(O)nc1cc(Cl)c(Cl)cc12
87 | 183 to 185 °C | Cc1nc(-c2ccc3c(c2)CCCC3)c(C(=O)O)o1
88 | 103 to 105 °C | CS(=O)(=O)OCCCCCCNc1ccc2nncn2n1
89 | 58 to 60 °C | CCOC(=O)c1ccc(C#CCO)cc1
90 | 152 to 153 °C | O=C(O)CCc1cn(Cc2ccc3cc(OCc4ccccc4F)ccc3c2)nc1-c1ccccc1
91 | 126 °C | CSc1cc(CCC(=O)OC(C)(C)C)cc(-c2nc(=O)c3ccccc3s2)n1
92 | 66 °C | CON(C)C(=O)CN1CCC(CCN2CCN(c3cccc(C)c3C)CC2)CC1
